Source: patent publication US9504669B2, “Spliceostatin analogs and methods for their preparation” (PFIZER INC., priority 2012, dated 2016)
Where a name gives a salt, the structure may show the parent alone.

Key:
Format in all cases: cell-based
[1] = system: BT474 (breast cancer) cells; experiment: In vitro cell assay (MTS cell viability), BT474; conditions: Homo sapiens, BT-474; free compounds (natural products and synthetic analogs); cell viability 96 hours after treatment
Procedure, shortened: (§1)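 Cells seeded 24 h, then treated with antibody-drug conjugates or free drug, 3-fold serial dilutions at 10 concentrations in duplicate. Viability by MTS at 96 h as percent of untreated control; IC50 from four-parameter logistic fit.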

[2] = system: MDA-MB-468 cells (target non-expressing); experiment: In vitro cell assay (MTS cell viability), MDA-MB-468; conditions: Homo sapiens, MDA-MB-468, 96 h, read-out: MDA-MB-468 IC50 (nM)
Method: Target expressing (BT474 (breast cancer), N87 (gastric cancer), HCC1954 (breast cancer), MDA-MB-361-DYT2 (breast cancer)) or non-expressing (MDA-MB-468) cells were seeded in 96-well cell culture plates for 24 hours before treatment. Cells were treated with 3-fold serially diluted antibody-drug conjugates or free compounds (i.e., no antibody conjugated to the drug) in duplicate at 10 concentrations. Cell viability was determined by CellTiter 96® AQueous One Solution Cell Proliferation MTS Assay (Promega, Madison Wis.) 96 hours after treatment. Relative cell viability was determined as percentage of untreated control. IC50 values were calculated using a four parameter logistic model #203 with XLfit v4.2 (IDBS, Guildford, Surry, UK). The potency ranged upward from 0.0002 nm. Similar procedures and techniques were employed.

[3] = system: N87 (gastric cancer) cells; experiment: In vitro cell assay (MTS cell viability), N87; conditions: 96 h, free compounds (natural products and synthetic analogs); cell viability 96 hours after treatment
Procedure, shortened: as §1

[4] = system: MDA-MB-361-DYT2 (breast cancer) cells; experiment: In vitro cell assay (MTS cell viability), MDA-MB-361-DYT2; conditions: 96 h, free compounds (natural products and synthetic analogs); cell viability 96 hours after treatment
Procedure, shortened: as §1

Row | SMILES | IC50 [1] | IC50 [2] | IC50 [3] | IC50 [4]
1 | CCCNC(=O)C[C@@H]1C[C@@]2(CO2)C[C@@H](/C=C/C(C)=C/C[C@@H]2O[C@H](C)[C@H](NC(=O)/C=C\[C@H](C)OC(C)=O)C[C@@H]2C)O1 [#B64, (2S,3Z)-5-({(2R,3R,5S,6S)-2,5-dimethyl-6-[(2E,4E)-3-methyl-5-{(3S,5S,7S)-7-[2-oxo-2-(propylamino)ethyl]-1,6-dioxaspiro[2.5]oct-5-yl}penta-2,4-dien-1-yl]tetrahydro-2H-pyran-3-yl}amino)-5-oxopent-3-en-2-yl acetate] | 5.26 nM | 1.38 nM | 24.8 nM | –
2 | CCCNC(=O)C[C@@H]1C[C@@]2(CO2)[C@H](O)[C@@H](/C=C/C(C)=C/C[C@@H]2O[C@H](C)[C@H](NC(=O)/C=C\[C@H](C)OC(=O)N3CCCCC3)C[C@@H]2C)O1 [#B66, (2S,3Z)-5-({(2R,3R,5S,6S)-6-[(2E,4E)-5-{(3R,4R,5R,7S)-4-hydroxy-7-[2-oxo-2-(propylamino)ethyl]-1,6-dioxaspiro[2.5]oct-5-yl}-3-methylpenta-2,4-dien-1-yl]-2,5-dimethyltetrahydro-2H-pyran-3-yl}amino)-5-oxopent-3-en-2-yl piperidine-1-carboxylate] | 0.18 nM | 0.27 nM | 1.58 nM | –
3 | CSCCN(C)C(=O)C[C@@H]1C[C@@]2(CO2)C[C@@H](/C=C/C(C)=C/C[C@@H]2O[C@H](C)[C@H](NC(=O)/C=C\[C@H](C)OC(C)=O)C[C@@H]2C)O1 [#B102, (2S,3Z)-5-{[(2R,3R,5S,6S)-2,5-dimethyl-6-{(2E,4E)-3-methyl-5-[(3S,5S,7S)-7-(2-{methyl[2-(methylsulfanyl)ethyl]amino}-2-oxoethyl)-1,6-dioxaspiro[2.5]oct-5-yl]penta-2,4-dien-1-yl}tetrahydro-2H-pyran-3-yl]amino}-5-oxopent-3-en-2-yl acetate] | 10.7 nM | – | 7.79 nM | 32.9 nM
4 | CSCCNC(=O)C[C@@H]1C[C@@]2(CO2)C[C@@H](/C=C/C(C)=C/C[C@@H]2O[C@H](C)[C@H](NC(=O)/C=C\[C@H](C)OC(C)=O)C[C@@H]2C)O1 [#B103, (2S,3Z)-5-{[(2R,3R,5S,6S)-2,5-dimethyl-6-{(2E,4E)-3-methyl-5-[(3S,5S,7S)-7-(2-{[2-(methylsulfanyl)ethyl]amino}-2-oxoethyl)-1,6-dioxaspiro[2.5]oct-5-yl]penta-2,4-dien-1-yl}tetrahydro-2H-pyran-3-yl]amino}-5-oxopent-3-en-2-yl acetate] | 4.03 nM | – | 1.6 nM | 4.25 nM
5 | CC(=O)O[C@@H](C)/C=C\C(=O)N[C@@H]1C[C@H](C)[C@H](C/C=C(C)/C=C/[C@@H]2C[C@]3(CO3)C[C@@H](CC(=O)NCCS(C)(=O)=O)O2)O[C@@H]1C [#B104, (2S,3Z)-5-{[(2R,3R,5S,6S)-2,5-dimethyl-6-{(2E,4E)-3-methyl-5-[(3S,5S,7S)-7-(2-{[2-(methylsulfonyl)ethyl]amino}-2-oxoethyl)-1,6-dioxaspiro[2.5]oct-5-yl]penta-2,4-dien-1-yl}tetrahydro-2H-pyran-3-yl]amino}-5-oxopent-3-en-2-yl acetate] | 4.02 nM | – | 1.41 nM | 9.13 nM
6 | CC(=O)/C=C\C(=O)N[C@@H]1C[C@H](C)[C@H](C/C=C(C)/C=C/[C@@H]2C[C@]3(CO3)C[C@@H](CC(N)=O)O2)O[C@@H]1C [#B129, (2Z)—N-[(2R,3R,5S,6S)-6-{(2E,4E)-5-[(3S,5S,7S)-7-(2-amino-2-oxoethyl)-1,6-dioxaspiro[2.5]oct-5-yl]-3-methylpenta-2,4-dien-1-yl}-2,5-dimethyltetrahydro-2H-pyran-3-yl]-4-oxopent-2-enamide] | > 100 nM | – | > 100 nM | > 100 nM
7 | CSCCN(C)C(=O)O[C@@H](C)/C=C\C(=O)N[C@@H]1C[C@H](C)[C@H](C/C=C(C)/C=C/[C@H]2O[C@H](CC(N)=O)C[C@@]3(CO3)[C@@H]2O)O[C@@H]1C [#B130, (2S,3Z)-5-{[(2R,3R,5S,6S)-6-{(2E,4E)-5-[(3R,4R,5R,7S)-7-(2-amino-2-oxoethyl)-4-hydroxy-1,6-dioxaspiro[2.5]oct-5-yl]-3-methylpenta-2,4-dien-1-yl}-2,5-dimethyltetrahydro-2H-pyran-3-yl]amino}-5-oxopent-3-en-2-yl methyl[2-(methylsulfanyl)ethyl]carbamate] | 1.5 nM | – | 2.98 nM | 4.5 nM
8 | CC(/C=C/[C@H]1O[C@H](CC(N)=O)C[C@@]2(CO2)[C@@H]1O)=C\C[C@@H]1O[C@H](C)[C@H](NC(=O)/C=C\[C@H](C)OC(=O)N2CCCCC2)C[C@@H]1C [#B134, (2S,3Z)-5-{[(2R,3R,5S,6S)-6-{(2E,4E)-5-[(3R,4R,5R,7S)-7-(2-amino-2-oxoethyl)-4-hydroxy-1,6-dioxaspiro[2.5]oct-5-yl]-3-methylpenta-2,4-dien-1-yl}-2,5-dimethyltetrahydro-2H-pyran-3-yl]amino}-5-oxopent-3-en-2-yl piperidine-1-carboxylate] | 1.18 nM | – | 1.8 nM | 2.02 nM
9 | CC(/C=C/[C@@H]1C[C@]2(CO2)C[C@@H](CC(N)=O)O1)=C\C[C@@H]1O[C@H](C)[C@H](NC(=O)/C=C\[C@H](C)OC(=O)N2CCNCC2)C[C@@H]1C [#B136, (2S,3Z)-5-{[(2R,3R,5S,6S)-6-{(2E,4E)-5-[(3S,5S,7S)-7-(2-amino-2-oxoethyl)-1,6-dioxaspiro[2.5]oct-5-yl]-3-methylpenta-2,4-dien-1-yl}-2,5-dimethyltetrahydro-2H-pyran-3-yl]amino}-5-oxopent-3-en-2-yl piperazine-1-carboxylate, acetate salt] | 25.5 nM | – | 90.1 nM | > 100 nM
10 | CC(/C=C/[C@@H]1C[C@]2(CO2)C[C@@H](CC(N)=O)O1)=C\C[C@@H]1O[C@H](C)[C@H](NC(=O)/C=C\[C@H](C)OC(=O)N2CCN(C)CC2)C[C@@H]1C [#B137, (2S,3Z)-5-{[(2R,3R,5S,6S)-6-{(2E,4E)-5-[(3S,5S,7S)-7-(2-amino-2-oxoethyl)-1,6-dioxaspiro[2.5]oct-5-yl]-3-methylpenta-2,4-dien-1-yl}-2,5-dimethyltetrahydro-2H-pyran-3-yl]amino}-5-oxopent-3-en-2-yl-4-methylpiperazine-1-carboxylate] | 1.8 nM | – | 5.59 nM | 10.3 nM
11 | CC(/C=C/[C@@H]1C[C@]2(CO2)C[C@@H](CN)O1)=C\C[C@@H]1O[C@H](C)[C@H](NC(=O)/C=C\[C@H](C)O)C[C@@H]1C [#B139, (2Z,4S)—N-[(2R,3R,5S,6S)-6-{(2E,4E)-5-[(3R,5S,7S)-7-(aminomethyl)-1,6-dioxaspiro[2.5]oct-5-yl]-3-methylpenta-2,4-dien-1-yl}-2,5-dimethyltetrahydro-2H-pyran-3-yl]-4-hydroxypent-2-enamide, acetate salt] | 5.49 nM | – | 6.51 nM | 13.4 nM
12 | CC(=O)O[C@@H](C)/C=C\C(=O)N[C@@H]1C[C@H](C)[C@H](C/C=C(C)/C=C/[C@@H]2C[C@]3(CO3)C[C@@H](CN)O2)O[C@@H]1C [#B140, (2S,3Z)-5-{[(2R,3R,5S,6S)-6-{(2E,4E)-5-[(3R,5S,7S)-7-(aminomethyl)-1,6-dioxaspiro[2.5]oct-5-yl]-3-methylpenta-2,4-dien-1-yl}-2,5-dimethyltetrahydro-2H-pyran-3-yl]amino}-5-oxopent-3-en-2-yl acetate, acetate salt] | 0.517 nM | – | 1.01 nM | 0.632 nM
13 | CC(=O)O[C@@H](C)/C=C\C(=O)N[C@@H]1C[C@H](C)[C@H](C/C=C(C)/C=C/[C@H]2O[C@H](CC(=O)N[C@H]3CC[C@H](O)CC3)C[C@@]3(CO3)[C@@H]2O)O[C@@H]1C [#B141, (2S,3Z)-5-{[(2R,3R,5S,6S)-6-{(2E,4E)-5-[(3R,4R,5R,7S)-4-hydroxy-7-{2-[(trans-4-hydroxycyclohexyl)amino]-2-oxoethyl}-1,6-dioxaspiro[2.5]oct-5-yl]-3-methylpenta-2,4-dien-1-yl}-2,5-dimethyltetrahydro-2H-pyran-3-yl]amino}-5-oxopent-3-en-2-yl acetate] | 10.9 nM | – | 11 nM | 12.8 nM
14 | CC(=O)O[C@@H](C)/C=C\C(=O)N[C@@H]1C[C@H](C)[C@H](C/C=C(C)/C=C/[C@H]2O[C@H](CN)C[C@@]3(CO3)[C@@H]2O)O[C@@H]1C [#B147, (2S,3Z)-5-{[(2R,3R,5S,6S)-6-{(2E,4E)-5-[(3R,4R,5R,7S)-7-(aminomethyl)-4-hydroxy-1,6-dioxaspiro[2.5]oct-5-yl]-3-methylpenta-2,4-dien-1-yl}-2,5-dimethyltetrahydro-2H-pyran-3-yl]amino}-5-oxopent-3-en-2-yl acetate, acetate salt] | 6.81 nM | – | 9.92 nM | 17.2 nM
15 | CC(=O)O[C@@H](C)/C=C\C(=O)N[C@@H]1C[C@H](C)[C@H](C/C=C(C)/C=C/[C@@H]2C[C@]3(CO3)C[C@@](C)(O)O2)O[C@@H]1C [#NP12, (2S,3Z)-5-{[(2R,3R,5S,6S)-6-{(2E,4E)-5-[(3R,5S,7S)-7-hydroxy-7-methyl-1,6-dioxaspiro[2.5]oct-5-yl]-3-methylpenta-2,4-dien-1-yl}-2,5-dimethyltetrahydro-2H-pyran-3-yl]amino}-5-oxopent-3-en-2-yl acetate] | 5.02 nM | – | 13.8 nM | 4.91 nM
